Experimental data from ChEMBL document CHEMBL3430912, “GSK Tres Cantos Anti-Kinetoplastid Screening (TCAKS) Data”.

How the values were obtained:
[1] = target: Sterol 14-alpha demethylase (Trypanosoma cruzi (strain CL Brener), UniProt Q7Z1V1); test: GSK_TCAKS: pIC50 CYP51 from Trypanosoma cruzi.; type: functional
[2] = tested on: Trypanosoma cruzi; test: (§1) GSK_TCAKS: pIC50 H2C9 Imaging: H9c2 Host Cardiomyocytes. […] Cells were then washed once with PBS before infection. T. cruzi trypomastigotes, collected at days 5 to 8 after infection from LLC-MK2 parasite infected cultures, were allowed to swim out for 4h at 37C from a centrifuged pellet (2,500 rpm/10 min/room temperature). Trypomastigotes were then collected and counted in a CASY Cell Counter. Trypomastigotes, in supplemented DMEM, were added to H9c2 cultures in a multiplicity of infection of 1 and incubated for 18 h. Cells were washed once with PBS before incubation of the infected H9c2 monolayer with trypsin (Life-Technologies) to detach cells from the flask. Cells were counted in a CASY Cell Counter using a 150 um capillary and their density set at 5 * 10^4 cells per mL in supplemented assay DMEM. Infected H9c2 were dispensed into 384-well poly-lysine coated assay plates at 50uL per well using a Multidrop Combi dispenser. After seeding them, the plates were incubated at 37C, 5% CO2 for 72h. Cultures were then fixed and stained by addition of 50 uL of a solution containing 8% formaldehyde and 4 uM DRAQ5 DNA dye (BioStatus, UK) per well. […] Five images were collected per well for reliable statistical analysis. Automated image analysis was performed with a script developed on Acapella High Content Imaging and Analysis Software (PerkinElmer). Output: Number of H9c2 Host Cardiomyocytes nuclei to determine drug-related cytotoxicity.; type: functional, organism-based, Rattus norvegicus; details: H9c2, 4 h
[3] = GSK_TCAKS: pIC50 HepG2 human cell line viability assay using luminiscence. […] Seeding density was checked to ensure that new mono-layers were not more than 50% confluent at the time of harvesting. Cell suspension was added to 500 mL of the same medium at a final density of 1.2 * 10^5 cells/mL. This cell suspension was dispensed (25 uL, 3000 cells per well) into 384-well clear-bottom plates using a Multidrop Combi dispenser. Prior to addition of the cell suspension, the screening compounds (250 nL) were pre-dispensed into the plates with an Echo liquid handler. Plates were incubated for 48 h at 37C, 5% CO2. After incubation, plates equilibrated at room temperature for 30 min before proceeding to develop the luminescent signal. The signal developer, CellTiter-Glo Reagent, was allowed to equilibrate at room temperature for 30 min and added to the plates (25uL per well) using a Multidrop Combi dispenser. Plates were left for 10 min at room temperature for stabilization and then read using a ViewLux.; type: toxicity, cell-based
[4] = tested on: Leishmania donovani; test: GSK_TCAKS: pIC50 Leishmania donovani viability assay using fluorescence intensity. Assay plates (1536-well) were prepared by adding 30nL per well of compound. For single shot assay, the final compound concentration was 5uM. […] Briefly, eGFP LdBOB axenic amastigotes were harvested, fixed and counted in a CASY cell counter (Roche-Applied Science). A final concentration of 1.5 * 10^5 cells per well were prepared in amastigote media containing 500 U/mL penicillin/streptomycin (Invitrogen) and 6uL was dispensed to each experimental well using a Multidrop Combi dispenser (Thermo Scientific). 6uL of assay media was dispensed to control columns used as reference for 100% compound response. Following incubation for 72 h at 37C, 5% CO2, 2 uL of resazurin was added to each well at a final concentration of 0.5 mM in phosphate buffered saline (PBS) with IGEPAL (Sigma-Aldrich), 0.05% (v/v).; type: functional, organism-based
[5] = tested on: NIH3T3; test: GSK_TCAKS: pIC50 NIH 3T3 cell line viability assay using luminiscence. Tissue culture surface treated assay plates (1536-well) were used. […] The 100% cells survival control was determined exposing the host-cells to a 0.5% DMSO concentration, whereas the 100% toxicity control was achieved by seeding the cells in presence of Amphotericin B at 50uM. Plates were incubated for four days at 37C, 5% CO2. The assay readout was developed by addition of 5uL of CellTiter-Glo Reagent following the manufacturer's instructions. Luminiscence was measured using a ViewLux.; type: functional, cell-based; details: Mus musculus, NIH3T3, 96 h
[6] = tested on: Trypanosoma cruzi; test: GSK_TCAKS: pIC50 Trypanosoma cruzi viability assay using beta-GAL activity. This assay was run at single shot at 5uM compound concentration per well. The biological reagents consisted of NIH-3T3 host cells and trypomastigotes parasitic cells; both cell types were set to a 3.3 * 10^5 cells/mL dilution in assay DMEM by means of a CASY cell counter device using a 60um capillary. 6 uL of the mixture were dispensed per well (about 1 * 10^3 host-cells and 1 * 10^3 parasites) with a Multidrop Combi dispenser. […] In all wells, the percentage of DMSO never exceeded 0.5%. Plates incubated for four days at 37C, 5% CO2. The substrate used for the assay fluorescence intensity (FLINT) readout was resorufin-beta-D-galactopiranoside (Sigma-Aldrich) at 5uM per well. It was diluted in PBS supplemented with the soft detergent Igepal (Fluka).; type: functional, organism-based, Mus musculus; details: Tulahuen, NIH3T3
[7] = tested on: Trypanosoma cruzi; test: as §1, with “Trypanosoma cruzi” for “H2C9”, “Amastigotes/Cell.” for “H9c2 Host Cardiomyocytes.”, “number” for “Number”, “amastigotes per cell as infection level measurement.” for “H9c2 Host Cardiomyocytes nuclei to determine drug-related cytotoxicity.”; type: functional, organism-based, Rattus norvegicus; details: H9c2, 4 h
[8] = tested on: Trypanosoma brucei brucei; test: GSK_TCAKS: pIC50 Trypanosoma brucei viability assay using fluorescence intensity. Assay plates (1536-well) were prepared by dispensing 25nL of compound solution per well using an Echo acoustic dispenser (Labcyte).; type: functional, organism-based; details: Lister 427, 2 h
[9] = tested on: Trypanosoma brucei brucei; test: GSK_TCAKS: pIC50 Trypanosoma brucei viability assay using luminiscence. Assay plates (1536-well) were prepared. T. brucei cultures were harvested and counted in a CASY cell counter. A parasite suspension was prepared at a final concentration of 5 * 10^4 cells/mL in complete HMI9 medium and 6uL was dispensed to all wells containing compounds using a Multidrop Combi dispenser. 6uL of HMI9 media with 0.4% DMSO were dispensed to control columns. Plates were incubated for 24 h at 37C, 5% CO2 then tempered for 10 min at room temperature. ATP content was quantified by adding 4 uL of CellTiter-Glo Reagent (Promega) according to the manufacturer's instructions. Luminescence was measured using a ViewLux.; type: functional, organism-based; details: Lister 427, CASY
[10] = tested on: Leishmania donovani; test: (§2) GSK_TCAKS: pIC50 Leishmania donovani Imaging: Amastigotes/Macrophages. Assay plates (384-well) were prepared by adding 250nL of compound to each well. For single shot assay, the final compound concentration was 5 uM. […] Automated image analysis was performed with a script developed on Acapella High Content Imaging and Analysis Software (PerkinElmer). Output: Average number of amastigotes per macrophage cell were reported for each well.; type: functional, organism-based, Homo sapiens; details: THP-1
[11] = tested on: Leishmania donovani; test: as §2, with “Infected Macrophages.” for “Amastigotes/Macrophages.”, “Percent” for “Average number”, “infected” for “amastigotes per”, “cells” for “cell”; type: functional, organism-based, Homo sapiens; details: THP-1
[12] = tested on: Trypanosoma cruzi; test: as §1, with “Trypanosoma cruzi” for “H2C9”, “Infected Cells.” for “H9c2 Host Cardiomyocytes.”, “percentage” for “Number”, “infected cells per well as a second infection marker.” for “H9c2 Host Cardiomyocytes nuclei to determine drug-related cytotoxicity.”; type: functional, organism-based, Rattus norvegicus; details: H9c2, 4 h
[13] = tested on: Leishmania donovani; test: as §2, with “THP-1 Host Macrophages.” for “Amastigotes/Macrophages.”, “THP-1” for “Average number of amastigotes per macrophage”, “cell count” for “cell”; type: functional, organism-based, Homo sapiens

Sequence of Sterol 14-alpha demethylase (Q7Z1V1 whole entry): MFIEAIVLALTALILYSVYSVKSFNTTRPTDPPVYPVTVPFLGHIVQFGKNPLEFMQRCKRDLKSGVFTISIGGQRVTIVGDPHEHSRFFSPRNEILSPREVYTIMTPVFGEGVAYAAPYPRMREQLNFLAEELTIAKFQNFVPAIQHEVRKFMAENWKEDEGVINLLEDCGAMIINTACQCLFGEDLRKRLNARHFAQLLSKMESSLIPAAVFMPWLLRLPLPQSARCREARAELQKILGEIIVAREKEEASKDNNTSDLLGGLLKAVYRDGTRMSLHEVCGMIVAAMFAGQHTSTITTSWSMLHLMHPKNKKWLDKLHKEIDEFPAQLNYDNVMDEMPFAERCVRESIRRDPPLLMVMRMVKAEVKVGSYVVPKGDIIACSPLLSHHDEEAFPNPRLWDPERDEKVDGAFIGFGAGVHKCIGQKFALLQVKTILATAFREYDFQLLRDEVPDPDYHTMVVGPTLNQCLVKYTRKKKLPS

Row | Compound | IC50 [1] | IC50 [2] | IC50 at 48 h [3] | IC50 [4] | IC50 [5] | IC50 [6] | IC50 [7] | IC50 [8] | IC50 [9] | IC50 [10] | IC50 [11] | IC50 [12] | IC50 [13]
1 | Cc1ccc2nc(N(Cc3cccnc3)C(=O)CCc3ccccc3)sc2c1 | 0.0631 µM | > 50.1 µM | > 100 µM | 25.1 µM | 15.8 µM | 0.0398 µM | 0.0316 µM | 12.6 µM | 20 µM | > 50.1 µM | > 50.1 µM | 0.0398 µM | > 50.1 µM
2 | O=C(COc1ncnc2cc([N+](=O)[O-])ccc12)NC(=O)NC1CCCCC1 | > 100 µM | > 50.1 µM | > 100 µM | > 50.1 µM | > 50.1 µM | 1.26 µM | 0.501 µM | 6.31 µM | > 39.8 µM | > 50.1 µM | > 50.1 µM | 1 µM | > 50.1 µM
3 | O=C(Nc1cccc(F)c1)N1CCC(Oc2cccc(-c3cccnc3)c2)CC1 | 0.158 µM | 25.1 µM | > 100 µM | 0.501 µM | 39.8 µM | 0.631 µM | 0.501 µM | 25.1 µM | > 39.8 µM | 0.794 µM | > 50.1 µM | 0.631 µM | 20 µM
4 | O=[N+]([O-])c1cccc(Nc2cncc(-c3ccccc3CO)c2)c1 | 3.16 µM | > 50.1 µM | > 100 µM | 39.8 µM | 39.8 µM | 0.316 µM | 0.251 µM | > 39.8 µM | > 39.8 µM | > 50.1 µM | > 50.1 µM | 0.398 µM | > 50.1 µM
5 | O=C(NC(c1ccc(Cl)cc1)c1cnccn1)C1CCN(C(=O)Nc2cccc(C(F)(F)F)c2)CC1 (stereo not drawn) | 0.126 µM | > 50.1 µM | > 100 µM | 20 µM | 39.8 µM | 0.631 µM | 0.501 µM | 12.6 µM | 6.31 µM | > 50.1 µM | > 50.1 µM | 0.631 µM | 39.8 µM
6 | c1ccc2c(CCOc3nccnc3-c3ccncc3)c[nH]c2c1 | 0.0631 µM | > 50.1 µM | > 100 µM | 5.01 µM | 20 µM | 0.141 µM | 0.158 µM | 31.6 µM | 39.8 µM | 20 µM | > 50.1 µM | 0.158 µM | 20 µM
7 | O=C(Nc1ccc(Br)c(Cl)c1)Nc1ccc2c(c1)OCO2 | > 100 µM | > 50.1 µM | > 100 µM | > 50.1 µM | 15.8 µM | 2.51 µM | 2 µM | 7.94 µM | 12.6 µM | > 50.1 µM | > 50.1 µM | 5.01 µM | > 50.1 µM
8 | Clc1cc(Br)ccc1OCCCCn1ccnc1 | 0.0631 µM | 25.1 µM | 50.1 µM | 0.126 µM | 15.8 µM | 0.631 µM | 0.316 µM | 10 µM | 20 µM | 6.31 µM | 25.1 µM | 0.251 µM | 31.6 µM
9 | COc1cccc(C(=O)[C@H]2C[C@@H]2CN(Cc2cccnc2)Cc2cccnc2)c1 | 0.0631 µM | > 50.1 µM | > 100 µM | 0.158 µM | 20 µM | 0.1 µM | 0.0501 µM | 31.6 µM | > 39.8 µM | 7.94 µM | > 50.1 µM | 0.0631 µM | 39.8 µM
10 | NC(=O)c1ccc(-c2cccc(OCCN3CCN(C4CCCCC4)CC3)c2)cc1 | 39.8 µM | > 50.1 µM | 50.1 µM | > 50.1 µM | 15.8 µM | 1.58 µM | 0.794 µM | 15.8 µM | 15.8 µM | 10 µM | 50.1 µM | 1.58 µM | 31.6 µM
11 | CCCC(=O)N(Cc1ccccn1)c1nc2ccccc2s1 | 0.0501 µM | > 50.1 µM | > 100 µM | 7.94 µM | > 50.1 µM | 0.126 µM | 0.0794 µM | 20 µM | > 39.8 µM | 10 µM | > 50.1 µM | 0.1 µM | > 50.1 µM
12 | O=[N+]([O-])c1ccc(C2=NCCNC(c3ccccc3)=C2)cc1.[O-][Cl+3]([O-])([O-])O | 50.1 µM | 31.6 µM | 50.1 µM | > 50.1 µM | 7.94 µM | 0.501 µM | 0.251 µM | 6.31 µM | > 12.6 µM | 7.94 µM | 20 µM | 1 µM | 39.8 µM
13 | Clc1ccc(Sc2cnccc2N2CCOCC2)cc1 | 0.0316 µM | > 50.1 µM | > 100 µM | 7.94 µM | > 50.1 µM | 0.141 µM | 0.1 µM | 25.1 µM | > 39.8 µM | 10 µM | > 50.1 µM | 0.126 µM | > 50.1 µM
14 | N#Cc1cc(N2CCCC2=O)ccc1Sc1ccccc1CO | 20 µM | > 50.1 µM | > 100 µM | > 50.1 µM | > 50.1 µM | 0.251 µM | 0.251 µM | 39.8 µM | 31.6 µM | > 50.1 µM | > 50.1 µM | 0.398 µM | > 50.1 µM
15 | Clc1ccc(CN2CCN(C3=NCCN3)CC2)cc1Cl | > 100 µM | > 50.1 µM | 63.1 µM | > 50.1 µM | 39.8 µM | 1.26 µM | 1 µM | > 39.8 µM | > 39.8 µM | > 50.1 µM | > 50.1 µM | 10 µM | > 50.1 µM
16 | CCCc1nc2nc(N)nc(N)c2cc1CC | > 100 µM | 12.6 µM | 20 µM | 2 µM | 31.6 µM | 0.355 µM | 0.0794 µM | 20 µM | 25.1 µM | 39.8 µM | 39.8 µM | 0.316 µM | > 50.1 µM
